Experiment [1] relates to human peripheral blood mononuclear cells (hPBMCs). The experiment can be described thus: IFN-γ induction in hPBMCs. The conditions noted are these: 24 h. The format is cell-based. The procedure: Assays to Measure Cytokine Induction
Test compounds were evaluated for cytokine induction in human peripheral blood mononuclear cells (hPBMCs).
Primary human PBMCs were isolated from fresh blood from healthy donors via Ficoll gradient separation and plated at 0.5×10^6 cells/well in 96-well tissue culture plates (RPMI-1640 plus 10% FBS). hPBMCs were maintained with RPMI-1640 culture media (Invitrogen, Grand Island, N.Y.), antibiotics (Invitrogen) and 10% FBS (Sigma).
Incubation and Assays for IFN-γ, IFN-α and TNF-α
hPBMCs were stimulated for 24 h with aqueous formulations of test compounds. Culture supernatants were analyzed for TNF-α and IFN-γ induction using multiplex kits (FluoroKine multiplex kits from R&D Systems, Minneapolis, Minn.) and for IFN-α induction using human IFN-α VeriKine ELISA kit (Pestka Biomedical Laboratories, Inc., Piscataway, N.J.).

A further experiment deals with T1, human TLR7 (Homo sapiens, UniProt Q9NYK1).
T1 construct: host or cells: HEK293
T1 sequence (Q9NYK1 27-1049): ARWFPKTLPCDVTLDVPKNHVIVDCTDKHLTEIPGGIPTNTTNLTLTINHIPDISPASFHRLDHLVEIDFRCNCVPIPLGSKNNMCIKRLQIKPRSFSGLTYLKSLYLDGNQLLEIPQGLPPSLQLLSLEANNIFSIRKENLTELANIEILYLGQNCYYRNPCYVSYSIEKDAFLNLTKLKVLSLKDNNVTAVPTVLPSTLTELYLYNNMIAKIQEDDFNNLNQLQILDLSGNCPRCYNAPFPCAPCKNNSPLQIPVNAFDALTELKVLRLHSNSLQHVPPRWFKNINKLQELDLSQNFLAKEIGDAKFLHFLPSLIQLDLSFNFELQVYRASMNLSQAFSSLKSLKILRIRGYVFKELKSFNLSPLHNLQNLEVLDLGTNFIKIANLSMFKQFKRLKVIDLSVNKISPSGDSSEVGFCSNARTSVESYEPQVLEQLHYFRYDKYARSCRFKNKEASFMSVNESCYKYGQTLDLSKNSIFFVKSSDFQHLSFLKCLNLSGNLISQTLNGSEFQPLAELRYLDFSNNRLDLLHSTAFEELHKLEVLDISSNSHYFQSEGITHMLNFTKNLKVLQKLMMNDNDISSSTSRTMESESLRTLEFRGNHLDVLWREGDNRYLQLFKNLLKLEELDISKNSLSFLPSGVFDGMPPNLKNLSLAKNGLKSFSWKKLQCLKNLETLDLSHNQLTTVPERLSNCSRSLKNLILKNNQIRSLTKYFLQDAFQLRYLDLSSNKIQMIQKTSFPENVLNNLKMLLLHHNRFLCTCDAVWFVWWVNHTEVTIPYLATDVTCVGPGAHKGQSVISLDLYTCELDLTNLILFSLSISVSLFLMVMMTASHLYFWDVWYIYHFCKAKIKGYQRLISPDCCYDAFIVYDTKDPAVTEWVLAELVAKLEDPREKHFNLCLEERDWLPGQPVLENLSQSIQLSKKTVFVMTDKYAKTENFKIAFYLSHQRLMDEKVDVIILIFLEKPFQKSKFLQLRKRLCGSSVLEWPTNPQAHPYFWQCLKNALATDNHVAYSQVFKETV
The experiment can be described thus: hTLR7 agonist reporter assay in HEK293 cells (NFκB-SEAP). To be noted: for EC50: read-out: hTLR7 ED50; for hTLR7/8 ratio: hTLR7 ED50 over hTLR8 ED50. The class given is cell-based. The procedure:
Assay for hTLR7 and hTLR8 Agonist Activity in HEK-293 Cells
Determination of TLR agonist activity was performed using the HEK293 […]. This assay measures TLR7 and TLR8 selectivity and potency of the compounds tested. HEK293 cells expressing human TLR7 or TLR8 and NFκB responsive Secreted Embryonic Alkaline Phosphatase (SEAP) reporter gene were obtained from InvivoGen (San Diego, Calif.). These cells were maintained in culture media of Dulbecco's Modified Eagle Medium (DMEM) (Invitrogen, Grand Island, N.Y.), 10% Fetal Bovine Serum (FBS) (Sigma, St. Louis, Mo.) and selection antibiotics (Invitrogen, and Invivogen). HEK293 stably transfected with human TLR7 (hTLR7) or human TLR8 (hTLR8) were stimulated for 24 h with aqueous formulations of test compounds and culture supernatants were analyzed for NFκB activation using the colorimetric SEAP detection kit QuantBlue (InvivoGen).

The structures appear in SMILES notation. Where two headings read alike, the source gives them in different places.

Take `CCCCCCCC/C=C\CCCCCCCC(=O)OC[C@H](COP(=O)(O)OCCOc1ccc2c(c1)nc(N)c1nc(CCCC)n(CCO)c12)OC(=O)CCCCCCC/C=C\CCCCCCCC` [Example 1]: the “IFN-γ induction, in words” value in experiment [1] (FIG. 9) was “more potent than Comparative Example 3 but less potent than Comparative Example 1”; in experiment [1] (FIG. 11, another occasion), “potent at inducing IFN-γ and each was more potent than Comparative Example 3”. Further, the “selectivity hTLR8/hTLR7, in words” value on human TLR7 (Table 1) is “notable selectivity for hTLR8/hTLR7”. The EC50 amounted to 1.06 µM on human TLR7 (Table 1, FIG. 1, 24 h stimulation, aqueous formulations); 7 µM at human TLR7 (Table 2, FIG. 3, another occasion, * = only very low levels of NFKB activation were detected); 4.1 µM on human TLR7 (Table 3, FIG. 5, another occasion, * = only very low levels of NFKB activation were detected); 7 µM at human TLR7 (Table 4, FIG. 7, another occasion). The hTLR7/8 ratio on human TLR7 (Table 1) came out at 11.0; on human TLR7 (Table 2), 8.9; at human TLR7 (Table 3) it was 6.9; on human TLR7 (Table 4), 9.9. Moreover, the “hTLR7 agonist activity, in words” value is “agonist of both TLR7 and TLR8” at human TLR7 (Table 3, FIG. 5); “significantly more potent as an agonist of hTLR7 and hTLR8 than Comparative Example 2” on human TLR7 (text on Table 1, FIG. 1); “more active than Comparative Example 2 as an agonist of hTLR7 and hTLR8” on human TLR7 (text on Table 2, FIG. 3).

These data come from patent publication US11274115B2, “Imidazoquinoline derivatives and their use in therapy” (GLAXOSMITHKLINE BIOLOGICALS SA, priority 2016, dated 2022).
